Test results reported in article PMC5967629 (Bioorganic & medicinal chemistry, 2018).

Experiments:
[1] = test system: Parental SK-OV-3; assay: SRB assay in parental SK-OV-3 cells; format: cell-based; conditions: Homo sapiens, SK-OV-3, read-out: IC50 ± SD Parental SK-OV-3
[2] = test system: MDA-MB-435 cancer cells; assay: SRB antiproliferative assay in MDA-MB-435 cells; format: cell-based; conditions: for antiproliferative activity (in words): MDA-MB-435 cells, Table 2; for fold less potent than 1 in MDA-MB-435 cells: relative to IC50 of 1
[3] = Metabolite identification of 3 in human liver microsomes; format: in vitro ADME; conditions: 3 at 20 μM incubated with human liver microsomes
[4] = test system: A-10 cells; format: cell-based; conditions: for microtubule depolymerization activity (in words): A-10 cells, Table 2

## COc1ccc(N(C)c2nc(C)nc3c2CCC3)cc1 [Compound 1]
[1]
  IC50: 11.3 ± 0.2 nM
[2]; Homo sapiens, MDA-MB-435, read-out: IC50 ± SD (MDA-MB-435) Cancer cells
  IC50: 7 ± 0.7 nM

## Cc1nc2c(c(N(C)c3ccc(O)cc3)n1)CCC2 [Compound 2, N-(4-Hydroxylphenyl)-N,2-dimethyl-6,7-dihydro-5H-cyclopenta[d]pyrimidin-4-amine]
[2]
  antiproliferative activity (in words): low activity

## CSc1ccc(N(C)c2nc(C)nc3c2CCC3)cc1 [Compound 3, N-(4-Methiophenyl)-N,2-dimethyl-6,7-dihydro-5H-cyclopenta[d]pyrimidin-4-amine]
[3]
  MS Peak Area in 60 min sample, HPLC area: 2,061,000

## Cc1nc2c(c(N(C)c3ccc([S+](C)[O-])cc3)n1)CCC2 (stereo not shown) [Compound 5, N-(4-Methylsulfinylphenyl)-N,2-dimethyl-6,7-dihydro-5H-cyclopenta[d]pyrimidin-4-amine]
[3]
  MS Peak Area in 60 min sample, HPLC area: 2,199,500

## Cc1nc2c(c(N(C)c3ccc(S(C)(=O)=O)cc3)n1)CCC2 [Compound 6, N-(4-Methylsulfonylphenyl)-N,2-dimethyl-6,7-dihydro-5H-cyclopenta[d]pyrimidin-4-amine]
[3]
  MS Peak Area in 60 min sample, HPLC area: 98,900
[4]
  microtubule depolymerization activity (in words): inactive

## CNc1ccc(N(C)c2nc(C)nc3c2CCC3)cc1 [Compound 7, N-(4-Methylaminophenyl)-N,2-dimethyl-6,7-dihydro-5H-cyclopenta[d]pyrimidin-4-amine]
[2]
  fold less potent than 1 in MDA-MB-435 cells: 2.9 fold

## Cc1nc2c(c(N(C)c3ccc(N)cc3)n1)CCC2 [Compound 8, N-(4-Aminophenyl)-N,2-dimethyl-6,7-dihydro-5H-cyclopenta[d]pyrimidin-4-amine]
[2]
  antiproliferative activity (in words): low activity

## Cc1nc2c(c(N(C)c3ccc4c(c3)CCO4)n1)CCC2 [Compound 9, N-(2,3-Dihydrobenzofuran-5-yl)-N,2-dimethyl-6,7-dihydro-5H-cyclopenta[d]pyrimidin-4-amine]
[2]
  fold less potent than 1 in MDA-MB-435 cells: 1.7 fold

## COc1ccc(N(C)c2nc(C)nc3c2CCC3)cc1C [Compound 10, N-(3-Methyl-4-methoxylphenyl)-N,2-dimethyl-6,7-dihydro-5H-cyclopenta[d]pyrimidin-4-amine]
[2]
  fold less potent than 1 in MDA-MB-435 cells: about 2.6 fold

## COc1ccc(CN(C)c2nc(C)nc3c2CCC3)cc1 [Compound 12, N-(4-Methoxylphenyl)methyl-N,2-dimethyl-6,7-dihydro-5H-cyclopenta[d]pyrimidin-4-ammonium chloride]
[2]
  antiproliferative activity (in words): poor MDA-MB-435 inhibitory activity

## COc1ccc([C@H](C)N(C)c2nc(C)nc3c2CCC3)cc1 [Compound 13, N-[1(1S)-(4-Methoxylphenyl)ethyl]-N,2-dimethyl-6,7-dihydro-5H-yclopenta[d]pyrimidin-4-amine]
[4]
  microtubule depolymerization activity (in words): devoid of any microtubule depolymerization activity

## COc1ccc([C@@H](C)N(C)c2nc(C)nc3c2CCC3)cc1 [Compound 14, N-[1(1R)-(4-Methoxylphenyl)ethyl]-N,2-dimethyl-6,7-dihydro-5H-cyclopenta[d]pyrimidin-4-amine]
[4]
  microtubule depolymerization activity (in words): devoid of any microtubule depolymerization activity

## N-(4-Methoxycyclohexyl)-N,2-dimethyl-6,7-dihydro-5H-cyclopenta[d]pyrimidin-4-amine [Compound 11]
[4]
  microtubule depolymerization activity (in words): devoid of any microtubule depolymerization activity
[4]; read-out: EC50 in A-10 cells, microtubule depolymerizing activity
  EC50: > 10000 nM
